The test system of the assay is MCF7. In words: Compound was tested for antiproliferative activity against human breast cancer cell line MCF-7 in MTT assay. It is filed as functional, cell-based. (In general: Tetrazolium dyes change colour on reduction, which living cells bring about.)

This is an account of results in ChEMBL document CHEMBL1130954, “Design and synthesis of analogs of vitamin E: antiproliferative activity against human breast adenocarcinoma cells” (Bioorg Med Chem Lett, 1998).

pIC50: −log10 of the molar value.

What is called pIC50 is the negative decadic logarithm of the IC50, by convention in mol/L. A lower pIC50 goes with a high IC50. The compound `CC(=O)Oc1c(C)c(C)c2c(c1C)CC[C@@](C)(CCC[C@H](C)CCC[C@H](C)CCCC(C)C)O2` had a pIC50 of less than 3.30.
The figure for `Cc1c(C)c2c(c(C)c1OC(=O)[C@@H](N)CCCCN)CCC(C)(CO)O2` (some centres undefined) is 3.71.
The figure for `Cc1c(C)c2c(c(C)c1OC(=O)[C@@H](N)CCCCN)CCC(C)(COC(=O)CCC(C)[C@H]1CC[C@H]3[C@@H]4[C@H](O)C[C@@H]5C[C@H](O)CC[C@]5(C)[C@H]4C[C@H](O)[C@]13C)O2` (some centres undefined) is 5.40; for `Cc1c(C)c2c(c(C)c1O)CCC(C)(C(=O)O)O2` (centres undefined) [TROLOX] it is 2.84.
The figure for `Cc1c(C)c2c(c(C)c1OC(=O)[C@@H](N)CCCCN)CC[C@@](C)(CCC[C@H](C)CCC[C@H](C)CCCC(C)C)O2` is 4.92.
As to `CCCCC(=O)OCC1(C)CCc2c(C)c(OC(=O)[C@@H](N)CCCCN)c(C)c(C)c2O1` (some centres undefined), the pIC50 is 4.82. This pIC50 and that of the compound before are within 0.2 log units of each other.
Next, `Cc1c(C)c2c(c(C)c1O)CC[C@@](C)(CCC[C@H](C)CCC[C@H](C)CCCC(C)C)O2` [ALPHA-TOCOPHEROL]: 3.48; `Cc1c(C)c2c(c(C)c1OC(=O)CCC(=O)O)CC[C@@](C)(CCC[C@H](C)CCC[C@H](C)CCCC(C)C)O2` [(+)-ALPHA-TOCOPHERYL SUCCINATE]: less than 3.43; `CCCCCOCC1(C)CCc2c(C)c(OC(=O)[C@@H](N)CCCCN)c(C)c(C)c2O1` (some centres undefined): 4.66.
